In ChEMBL document CHEMBL1795233, “The geranyl-modified tryptophan residue is crucial for ComXRO-E-2 pheromone biological activity” (Bioorg Med Chem Lett, 2011) one finds Emax, EC25 and EC50 data, which are given here for 20 compounds.

*1 amine or outer side, *2 acyl side, *3 side chain or, on linkers, in order; H or OH if unused. Where a SMILES comes first, the peptide text is derived from it. [ ]: non-standard residue; d: D form. X2 = CC(C)=CCC/C(C)=C/CC/C(C)=C/C[C@]12C[C@@H](C(=O)[*:2])N([*:1])[C@H]1Nc1ccccc12; X4 = CC(C)=CCC/C(C)=C/C[C@]12C[C@@H](C(=O)[*:2])N([*:1])[C@H]1Nc1ccccc12; X1 = C/C(=C\C[C@]12C[C@@H](C(=O)[*:2])N([*:1])[C@H]1Nc1ccccc12)CCCC(C)C; X3 = CC(C)=CC[C@]12C[C@@H](C(=O)[*:2])N([*:1])[C@H]1Nc1ccccc12 Where only a bound is given, the exact number is not on record here.

Assay [1] relates to Bacillus subtilis. Put plainly: Effect on quorum sensing-mediated genetic competence in Bacillus subtilis expressing srfA-lacZ fusion assessed as maximum activity after 5 hrs by beta-galactosidase assay relative to ComXRO-E-2 pheromone.
The subject of assay [2] is Bacillus subtilis. Put plainly: Effect on quorum sensing-mediated genetic competence in Bacillus subtilis expressing srfA-lacZ fusion assessed as concentration required to show same activity at EC25 of ComXRO-E-2 pheromone after 5 hrs by beta-galactosidase assay.
The nature of assay [3]: Effect on quorum sensing-mediated genetic competence in Bacillus subtilis expressing srfA-lacZ fusion assessed as concentration required to show same activity at EC50 of ComXRO-E-2 pheromone after 5 hrs by beta-galactosidase assay.

As to `CC[C@H](C)[C@H](NC(=O)CN)C(=O)N[C@@H](Cc1ccccc1)C(=O)N1[C@H]2Nc3ccccc3[C@@]2(C/C=C(\C)CC/C=C(\C)CCC=C(C)C)C[C@H]1C(=O)N[C@@H](CCC(=O)O)C(=O)N[C@@H](CCC(N)=O)C(=O)O` (H-GIF[X2]EQ-OH), in assay [1], the Emax amounted to 35%. For the same compound, in assay [2], the EC25 worked out at 20 nM. Moreover, the EC50 in assay [3] is above 300 nM.
The like results for `CC[C@H](C)[C@H](NC(=O)CN)C(=O)N[C@@H](Cc1ccccc1)C(=O)N1[C@H]2Nc3ccccc3[C@@]2(C/C=C(\C)CCCC(C)C)C[C@H]1C(=O)N[C@@H](CCC(=O)O)C(=O)N[C@@H](CCC(N)=O)C(=O)O` (H-GIF[X1]EQ-OH) were, in that order, 75%, 2 nM and 20 nM.
Consider `CC(C)=CCC/C(C)=C/C[C@]12C[C@@H](C(=O)N[C@@H](C)C(=O)O)N(C(=O)[C@@H](N)Cc3ccc(O)cc3)[C@H]1Nc1ccccc12`, for which the Emax in assay [1] is 25%. In addition, the EC25 in assay [2] turned out to be 100 nM. In addition, the concentration for a half-maximal effect (EC50) in assay [3] was above 300 nM.
The like results for `CC(C)=CCC/C(C)=C/C[C@]12C[C@@H](C(=O)N[C@@H](C)C(=O)O)N(C(=O)C(N)Cc3ccccc3)[C@H]1Nc1ccccc12` (single isomer, unassigned) were, in that order, 70%, 3 nM and 60 nM.
The like results for `CC[C@H](C)[C@H](NC(=O)CN)C(=O)N[C@@H](Cc1ccccc1)C(=O)N1[C@H]2Nc3ccccc3[C@@]2(CC=C(C)C)C[C@H]1C(=O)N[C@@H](CCC(=O)O)C(=O)N[C@@H](CCC(N)=O)C(=O)O` (H-GIF[X3]EQ-OH) were, in that order, 0%, above 300 nM and above 300 nM.
For `CC(C)=CCC/C(C)=C/C[C@]12C[C@@H](C(=O)N[C@@H](C)C(=O)O)N(C(=O)[C@@H](N)CC(C)C)[C@H]1Nc1ccccc12` the same measures were 20%, above 300 nM and above 300 nM.
For `CC[C@H](C)[C@H](N)C(=O)N1[C@H]2Nc3ccccc3[C@@]2(C/C=C(\C)CCC=C(C)C)C[C@H]1C(=O)N[C@@H](C)C(=O)O`, in assay [1], the Emax is 35%. For the same compound, in assay [2], the EC25 was found to be 20 nM. Also, in assay [3], the EC50 is above 300 nM.
For the compound `CC(C)=CCC/C(C)=C/C[C@]12C[C@@H](C(=O)N[C@@H](C)C(=O)O)N(C(=O)[C@@H](N)CC(N)=O)[C@H]1Nc1ccccc12`, the Emax in assay [1] was 5%. In addition, the EC25 in assay [2] was above 300 nM. The EC50 in assay [3] is above 300 nM.
With `CC(C)=CCC/C(C)=C/C[C@]12C[C@@H](C(=O)N[C@@H](C)C(=O)O)N(C(=O)[C@H](C)N)[C@H]1Nc1ccccc12`, the maximal response (Emax) in assay [1] is 15%. Also, the EC25 in assay [2] is above 300 nM. The EC50 in assay [3] is above 300 nM.
Regarding `COC(=O)[C@@H]1C[C@]2(C/C=C(\C)CCC=C(C)C)c3ccccc3N[C@@H]2N1C(=O)[C@H](Cc1ccccc1)NC(C)=O`, in assay [1], the Emax was found to be 10%. Moreover, the EC25 in assay [2] is above 300 nM. The EC50 in assay [3] was above 300 nM.
Regarding `CC(C)=CCC/C(C)=C/C[C@]12C[C@@H](C(=O)N[C@@H](C)C(=O)O)N(C(=O)[C@@H](N)Cc3cc4ccccc4[nH]3)[C@H]1Nc1ccccc12`, in assay [1], the Emax was determined as 15%. Also, the EC25 in assay [2] was above 300 nM. The EC50 in assay [3] is above 300 nM.
On to `CC[C@H](C)[C@H](NC(=O)CN)C(=O)N[C@@H](Cc1ccccc1)C(=O)N1[C@H]2Nc3ccccc3[C@@]2(C/C=C(\C)CCC=C(C)C)C[C@H]1C(=O)N[C@@H](CCC(=O)O)C(=O)N[C@@H](CCC(N)=O)C(=O)O` (H-GIF[X4]EQ-OH), for which the EC25 in assay [2] came to 0.3 nM. Moreover, in assay [3], the EC50 turned out to be 1 nM.
`CC(C)=CCC/C(C)=C/C[C@]12C[C@@H](C(N)=O)N(C(=O)c3ccccc3)[C@H]1Nc1ccccc12`: in assay [1], the Emax came to 0%. Besides, the EC25 in assay [2] was above 300 nM. Moreover, the EC50 in assay [3] was above 300 nM.
For `CC(C)=CCC/C(C)=C/C[C@]12C[C@@H](C(=O)N[C@@H](C)C(=O)O)N(C(=O)[C@@H]3CCCN3)[C@H]1Nc1ccccc12`, the Emax in assay [1] was found to be 5%. In addition, the EC25 in assay [2] was above 300 nM. Besides, the EC50 in assay [3] was above 300 nM.
Regarding `CC(C)=CCC/C(C)=C/C[C@]12C[C@@H](C(=O)N[C@@H](CCC(=O)O)C(=O)O)N(C(=O)C(N)Cc3ccccc3)[C@H]1Nc1ccccc12` (single isomer, unassigned), in assay [1], the Emax came out at 60%. Besides, the EC25 in assay [2] is 8 nM. In assay [3], the EC50 worked out at 20 nM.
The like results for `CC[C@H](C)[C@H](NC(=O)CN)C(=O)N[C@@H](Cc1ccccc1)C(=O)N1[C@H]2Nc3ccccc3[C@@]2(CCC(C)CCCC(C)C)C[C@H]1C(=O)N[C@@H](CCC(=O)O)C(=O)N[C@@H](CCC(N)=O)C(=O)O` (mixture of isomers) were, in that order, 40%, 200 nM and above 300 nM.
For `CC(C)=CCC/C(C)=C/C[C@]12C[C@@H](C(N)=O)N(C(=O)[C@@H](N)Cc3ccccc3)[C@H]1Nc1ccccc12` the same measures were 35%, 50 nM and above 300 nM.
The like results for `CC(C)=CCC/C(C)=C/C[C@]12C[C@H]3C(=O)N[C@@H](Cc4ccccc4)C(=O)N3[C@H]1Nc1ccccc12` were, in that order, 5%, above 300 nM and above 300 nM.
In the case of `CC(C)=CCC/C(C)=C/C[C@]12C[C@@H](C(=O)NCC(=O)O)N(C(=O)C(N)Cc3ccccc3)[C@H]1Nc1ccccc12` (single isomer, unassigned), the Emax in assay [1] came out at 40%. The EC25 in assay [2] was found to be 200 nM. The EC50 in assay [3] was above 300 nM.
The like results for `CC(C)=CCC/C(C)=C/C[C@]12C[C@@H](C(=O)N[C@@H](CCC(=O)O)C(=O)O)N(C(=O)[C@H](C)N)[C@H]1Nc1ccccc12` were, in that order, 20%, above 300 nM and above 300 nM.
